US20250002527A1, “STEROID COMPOUND AND CONJUGATE THEREOF” (DUALITY BIOLOGICS (SUZHOU) CO., LTD., priority 2021, published 2025)

How the values were obtained:
Assay type in all cases: cell-based
glucocorticoid receptor [1] = target: T1, glucocorticoid receptor (Homo sapiens, UniProt P04150); test: Measurement 2 of glucocorticoid receptor reporter gene GRE activity (HEK293 GRE cells); conditions: 24 hours
T1 construct: expressed in transfected cells; host or cells: HEK293
T1 sequence (P04150 1-777): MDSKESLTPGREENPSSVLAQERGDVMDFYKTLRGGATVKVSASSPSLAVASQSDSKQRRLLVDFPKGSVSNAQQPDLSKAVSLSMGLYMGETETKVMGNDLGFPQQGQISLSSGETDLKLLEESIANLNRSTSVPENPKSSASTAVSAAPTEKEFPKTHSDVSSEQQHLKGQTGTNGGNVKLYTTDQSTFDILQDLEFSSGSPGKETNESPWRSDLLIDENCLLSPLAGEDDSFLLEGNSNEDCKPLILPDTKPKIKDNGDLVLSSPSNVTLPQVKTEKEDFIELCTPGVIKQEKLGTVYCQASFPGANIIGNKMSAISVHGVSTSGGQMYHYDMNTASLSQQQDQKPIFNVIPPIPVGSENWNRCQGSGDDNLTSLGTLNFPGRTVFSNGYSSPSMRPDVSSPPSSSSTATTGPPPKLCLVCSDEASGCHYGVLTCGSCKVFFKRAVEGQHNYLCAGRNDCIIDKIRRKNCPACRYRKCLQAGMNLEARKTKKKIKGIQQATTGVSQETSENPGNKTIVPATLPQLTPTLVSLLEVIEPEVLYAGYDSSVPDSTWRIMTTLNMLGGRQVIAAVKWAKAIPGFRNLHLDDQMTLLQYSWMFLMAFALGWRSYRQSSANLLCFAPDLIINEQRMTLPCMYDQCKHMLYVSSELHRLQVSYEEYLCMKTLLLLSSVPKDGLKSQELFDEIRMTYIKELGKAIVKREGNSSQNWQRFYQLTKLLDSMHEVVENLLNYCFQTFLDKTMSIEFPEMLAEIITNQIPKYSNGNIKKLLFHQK

human PBMC cells = test: IFN-α secretion from PBMC under R848 stimulation (compounds); conditions: R848 5 μM, 24 hours, mean ± standard deviation
Procedure: The compounds of the present application were tested for their inhibitory effect on the production of peripheral blood monocytes. The peripheral blood monocytes were treated in vitro with the ligand-drug conjugate at different concentrations, and IFNα and TNFα generated by the peripheral blood monocytes were quantitatively detected after a certain time. The compounds of the present invention were evaluated for in-vitro activity.
The cryopreserved human PBMC cells were resuspended in a complete medium and counted, and the cell suspension was adjusted to 2.5×10*6 cells/mL with the culture medium. After the suspension was centrifuged to collect the cells the next day, the cells were resuspended using fresh culture medium. Test compounds were diluted to 4-fold final concentration in cell culture medium, 50 μL of the compounds were added into a 96-well cell plate, and 100 μL of diluted cells ([…]) were added into each well of the 96-well plate containing the compounds, followed by addition of 50 μL R848 to a final concentration of 5 μM. The cell plate was incubated at 37° C. with 5% CO2 for 24 hours. The supernatant was collected, and the TNF-α and IFN-α concentration levels in the supernatant were detected using an ELISA kit.
50 μL of biotinylated antibody working solution was added into each well. After mixing well, the plate was covered with the plate-sealing membrane and incubated at room temperature for 3 hours. […] The procedure was repeated for 3 times. 100 μL of Streptavidin-HRP working solution was added into each well. The plate was covered with the plate-sealing membrane and incubated at room temperature for 20 minutes. The plate was washed for 3 times, 100 μL of TMB liquid was added into each well, and the plate was incubated for 25 minutes at room temperature (18-25° C.) in the dark. The reaction was stopped by adding 100 μL stop solution rapidly to each well. The reading at a wavelength of 450 nm was detected by an M2e instrument within 10 minutes after termination.
The contents of TNF-α and IFN-α were calculated from the OD450 values.

glucocorticoid receptor [2] = target: T1, glucocorticoid receptor; test: Measurement 1 of glucocorticoid receptor reporter gene GRE activity; conditions: HEK293 transfected with pGL5 and pBIND-GR, 24 hours
Procedure: (§1) HEK293 cells were cultured in DMEM+10% FBS medium in a carbon dioxide incubator humidified at 37° C. at 5% carbon dioxide.
(§2) The prepared transfection mixtures were added to 10 mL of the cell density-adjusted resuspension, mixed well by turning the mixtures upside down, and seeded into a 96-well plate at a volume of 100 μL/well.
(§3) The test plate was detected using the Dual-Glo Luciferase Assay System kit from Promega, and the fluorescence signal of Firefly Luciferase and the fluorescence signal of Renilla Luciferase were read using Enspire, respectively.
The final measurement value was a normalized value “F/R” obtained by dividing the Firefly Luciferase fluorescent signal by the Renilla Luciferase fluorescent signal.
The data were copied and pasted into Excel, and the activation rate was obtained through an equation.
The data were imported into MS Excel and subjected to curve fitting by using XLFit excel add-in version 5.4.0.8 to obtain an EC50 value.
(§4) Y is the agonism and X is the concentration of the compound.

MR = target: T2, MR (Homo sapiens, UniProt P08235); test: MR luciferase reporter gene experiment; conditions: HEK293 transfected with pBIND-MR
T2 construct: expressed in transfected cells; host or cells: HEK293
T2 sequence (P08235 1-984): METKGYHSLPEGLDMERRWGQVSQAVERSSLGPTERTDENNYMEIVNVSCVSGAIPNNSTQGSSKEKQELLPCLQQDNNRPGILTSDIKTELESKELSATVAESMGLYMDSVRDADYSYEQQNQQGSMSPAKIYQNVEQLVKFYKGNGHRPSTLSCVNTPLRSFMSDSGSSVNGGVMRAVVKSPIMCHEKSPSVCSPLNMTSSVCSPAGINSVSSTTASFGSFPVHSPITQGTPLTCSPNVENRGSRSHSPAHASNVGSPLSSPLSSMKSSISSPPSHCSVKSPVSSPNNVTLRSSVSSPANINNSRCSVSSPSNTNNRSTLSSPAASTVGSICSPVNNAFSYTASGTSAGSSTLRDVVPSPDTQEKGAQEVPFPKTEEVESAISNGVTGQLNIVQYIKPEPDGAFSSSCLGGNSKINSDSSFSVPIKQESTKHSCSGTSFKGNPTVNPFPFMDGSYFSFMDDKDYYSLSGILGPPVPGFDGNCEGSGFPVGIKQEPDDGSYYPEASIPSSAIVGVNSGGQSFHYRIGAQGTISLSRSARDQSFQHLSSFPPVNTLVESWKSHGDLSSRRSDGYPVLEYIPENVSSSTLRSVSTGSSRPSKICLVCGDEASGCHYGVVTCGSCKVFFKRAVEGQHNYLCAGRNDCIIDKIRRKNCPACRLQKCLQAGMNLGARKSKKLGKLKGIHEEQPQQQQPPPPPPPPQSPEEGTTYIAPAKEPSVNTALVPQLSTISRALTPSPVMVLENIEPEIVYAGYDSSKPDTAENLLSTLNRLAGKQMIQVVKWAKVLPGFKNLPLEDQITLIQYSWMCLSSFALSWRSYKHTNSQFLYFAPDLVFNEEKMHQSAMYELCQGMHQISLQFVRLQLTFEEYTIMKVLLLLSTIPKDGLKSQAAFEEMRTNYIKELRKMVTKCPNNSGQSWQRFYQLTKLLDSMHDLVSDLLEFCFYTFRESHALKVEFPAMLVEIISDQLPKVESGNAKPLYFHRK
Procedure: as §1
(§5) • 1) HEK293 cells were trypsinized, and the HEK293 cell resuspension was adjusted to 200,000 cell/mL in medium (96 well plate: 100 μL/well). • 2) Transfection reagent mixtures were prepared according to the table below, mixed well and left at room temperature for 20 minutes.
as §2, with “• 3) The” for “The”, “μL/well. • 4) The 96-well plate was incubated in a humidified incubator at 37° C. and 5% carbon dioxide for 24 hours.” for “μL/well.”
as §3, §4

ERα = target: T3, ERα (Homo sapiens, UniProt P03372); test: ERα luciferase reporter gene experiment; conditions: HEK293 transfected with pBIND-ERα
T3 sequence (P03372 311-547 limits assumed): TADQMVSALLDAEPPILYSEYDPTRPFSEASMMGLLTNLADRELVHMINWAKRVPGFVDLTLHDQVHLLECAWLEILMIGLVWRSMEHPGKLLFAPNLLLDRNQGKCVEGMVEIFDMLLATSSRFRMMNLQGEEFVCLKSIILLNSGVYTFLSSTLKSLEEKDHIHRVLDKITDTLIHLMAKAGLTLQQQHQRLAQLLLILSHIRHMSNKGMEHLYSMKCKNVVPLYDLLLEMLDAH
Procedure: as §1, §5
as §2, with “• 3) The” for “The”, “μL/well. • 4) The 96-well plate was incubated in a humidified incubator at 37° C. and 5% carbon dioxide for 24 hours.” for “μL/well.”
as §3, §4

## C[C@]12C=CC(=O)C=C1CC[C@@H]1[C@@H]2[C@@H](O)C[C@@]2(C)[C@H]1C[C@H]1O[C@@H](c3ccc(Cc4ccc(CO)c(N)c4)cc3)O[C@]12C(=O)CO [Compound 6]
Glucocorticoid receptor [1]
  EC50: 0.12 nM
Human PBMC cells; compound 4 nM
  IFN-α secretion (pg/mL) from PBMC under R848 stimulation: 99.8 ± +5.7 pg/mL
Human PBMC cells; compound 20 nM
  IFN-α secretion (pg/mL) from PBMC under R848 stimulation: 45.9 ± 45.9 pg/mL
Human PBMC cells; compound 100 nM
  IFN-α secretion (pg/mL) from PBMC under R848 stimulation: 6.9 ± 6.9 pg/mL

## C[C@]12C=CC(=O)C=C1CC[C@@H]1[C@@H]2[C@@H](O)C[C@@]2(C)[C@H]1C[C@H]1O[C@H](c3ccc(Cc4ccc(CO)cc4)cc3)O[C@]12C(=O)CO [Compound 4S]
Glucocorticoid receptor [2]
  EC50: 1.42 nM

## C[C@]12C=CC(=O)C=C1CC[C@@H]1[C@@H]2[C@@H](O)C[C@@]2(C)[C@H]1C[C@H]1O[C@@H](c3ccc(Cc4cccc(CO)c4)cc3)O[C@]12C(=O)CO [Compound 3]
MR
  EC50: > 1000 nM
ERα
  EC50: > 1000 nM
